Patent publication US9969752B2, “Inhibitors of HIF prolyl hydroxylase” (MERCK SHARP & DOHME CORP., priority 2014, dated 2018)

Target: T1, Human HIF-PHD2 (Homo sapiens, UniProt Q9GZT9)
T1 construct: FLAG-tagged full length PHD2 expressed in and purified from baculovirus-infected Sf9 cells; FLAG; made in house; host or cells: baculovirus-infected Sf9 cells
Test: Inhibition of the hydroxylation of a HIF peptide by PHD2 (time resolved fluorescence, 384-well)
Assay type: biochemical
Conditions: FLAG-tagged full length PHD2; 0.2 μM 2-oxoglutarate, 0.5 μM HIF-1α peptide; 45 minutes at room temperature; read-out: Human HIF-PHD2 IC50

T1 sequence (Q9GZT9 whole entry): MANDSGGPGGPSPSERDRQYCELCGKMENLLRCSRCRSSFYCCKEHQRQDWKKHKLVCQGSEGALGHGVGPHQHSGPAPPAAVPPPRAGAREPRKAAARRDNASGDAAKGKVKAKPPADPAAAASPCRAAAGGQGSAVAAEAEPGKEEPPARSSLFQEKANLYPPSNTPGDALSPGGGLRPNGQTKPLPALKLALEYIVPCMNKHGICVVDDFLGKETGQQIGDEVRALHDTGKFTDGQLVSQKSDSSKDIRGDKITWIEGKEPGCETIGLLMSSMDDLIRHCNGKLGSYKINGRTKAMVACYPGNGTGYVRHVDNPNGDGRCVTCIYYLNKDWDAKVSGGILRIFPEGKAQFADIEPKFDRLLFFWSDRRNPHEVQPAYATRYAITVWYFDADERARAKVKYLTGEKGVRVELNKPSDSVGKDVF

SMILES | IC50 [nM]
N#Cc1ccc2c3c1c(O)c(C(=O)NCC(=O)O)c(=O)n3CC(c1ccc(C(F)(F)F)cc1)N2 (stereo not shown) [Example 94, 2-(8-Cyano-7-hydroxy-5-oxo-2-(4-(trifluoromethyl)phenyl)-1,2,3,5-tetrahydropyrido[1,2,3-de]quinoxaline-6-carboxamido)acetic acid] | 0.8
O=C(O)CNC(=O)c1c(O)c2cc(Br)cc3c2n(c1=O)C(Cc1ccc(C(F)(F)F)cc1)CO3 (stereo not shown) [Example 5, 2-(9-Bromo-7-hydroxy-5-oxo-3-(4-(trifluoromethyl)benzyl)-3,5-dihydro-2H-[1,4]oxazino[2,3,4-ij]quinoline-6-carboxamido)acetic acid] | 18
O=C(O)CNC(=O)c1c(O)c2c(Br)ccc3c2n(c1=O)CC(c1ccc(C(F)(F)F)cc1)O3 (stereo not shown) [Example 11, 2-(8-Bromo-7-hydroxy-5-oxo-2-(4-(trifluoromethyl)phenyl)-3,5-dihydro-2H-[1,4]oxazino[2,3,4-ij]quinoline-6-carboxamido)acetic acid] | 2.6
CS(=O)(=O)c1ccc2c(O)c(C(=O)NCC(=O)O)c(=O)n3c2c1OCC3 [Example 38, 2-(7-Hydroxy-10-(methylsulfonyl)-5-oxo-3,5-dihydro-2H-[1,4]oxazino[2,3,4-ij]quinoline-6-carboxamido)acetic acid] | 1.6
N#Cc1cc2c3c(c1)c(O)c(C(=O)NCC(=O)O)c(=O)n3CC(c1ccc(C(F)(F)F)nc1)C2 (stereo not shown) [Example 84, 2-(9-cyano-1-hydroxy-3-oxo-6-(6-(trifluoromethyl)pyridin-3-yl)-3,5,6,7-tetrahydropyrido[3,2,1-ij]quinoline-2-carboxamido)acetic acid] | 0.9
O=C(O)CNC(=O)c1c(O)c2cccc3c2n(c1=O)CC(c1cncs1)C3 (single isomer, unassigned) [Example 50a, 2-(1-Hydroxy-3-oxo-6-(thiazol-5-yl)-3,5,6,7-tetrahydropyrido[3,2,1-ij]quinoline-2-carboxamido)acetic acid] | 6.7
Cc1ccc2c(O)c(C(=O)NCC(=O)O)c(=O)n3c2c1OCC3Cc1ccc(C(F)(F)F)cc1 (stereo not shown) [Example 33, 2-(7-Hydroxy-10-methyl-5-oxo-3-(4-(trifluoromethyl)benzyl)-3,5-dihydro-2H-[1,4]oxazino[2,3,4-ij]quinoline-6-carboxamido)acetic acid] | 17
O=C(O)CNC(=O)c1c(O)c2c(Br)ccc3c2n(c1=O)CC(c1ccc(Br)cc1)O3 (stereo not shown) [Example 55, 2-(8-Bromo-2-(4-bromophenyl)-7-hydroxy-5-oxo-3,5-dihydro-2H-[1,4]oxazino[2,3,4-ij]quinoline-6-carboxamido)acetic acid] | 2.5

Second part, the compound after the results:

IC50 [nM] | SMILES
2.9 | COc1cc2c3c(c1)c(O)c(C(=O)NCC(=O)O)c(=O)n3CC(c1ccc(C(F)(F)F)cc1)O2 (stereo not shown) [Example 81, 2-(7-Hydroxy-9-methoxy-5-oxo-2-(4-(trifluoromethyl)phenyl)-3,5-dihydro-2H-[1,4]oxazino[2,3,4-ij]quinoline-6-carboxamido)acetic acid]
5 | O=C(O)CNC(=O)c1c(O)c2cc(F)cc3c2n(c1=O)CC(c1ccc(C(F)(F)F)cc1)O3 (stereo not shown) [Example 66, 2-(9-Fluoro-7-hydroxy-5-oxo-2-(4-(trifluoromethyl)phenyl)-3,5-dihydro-2H-[1,4]oxazino[2,3,4-ij]quinoline-6-carboxamido)acetic acid]
8.6 | O=C(O)CNC(=O)c1c(O)c2cccc3c2n(c1=O)C(c1ccc(C(F)(F)F)cc1)CS3(=O)=O (stereo not shown) [Example 101, 2-(7-hydroxy-1,1-dioxido-5-oxo-3-(4-(trifluoromethyl)phenyl)-3,5-dihydro-2H-[1,4]thiazino[2,3,4-ij]quinoline-6-carboxamido)acetic acid]
5.4 | N#Cc1ccc2c(O)c(C(=O)NCC(=O)O)c(=O)n3c2c1OCC3c1ccc(C(F)(F)F)cc1 (stereo not shown) [Example 178, Ammonium 2-(10-cyano-7-hydroxy-5-oxo-3-(4-(trifluoromethyl)phenyl)-3,5-dihydro-2H-[1,4]oxazino[2,3,4-ij]quinoline-6-carboxamido)acetate]
34 | CN1c2cccc3c(O)c(C(=O)NCC(=O)O)c(=O)n(c23)CC1c1ccc(C(F)(F)F)cc1 (stereo not shown) [Example 65, 2-(7-Hydroxy-1-methyl-5-oxo-2-(4-(trifluoromethyl)phenyl)-1,2,3,5-tetrahydropyrido[1,2,3-de]quinoxaline-6-carboxamido)acetic acid]
2.7 | O=C(O)CNC(=O)c1c(O)c2cc(O)cc3c2n(c1=O)CC(c1ccc(C(F)(F)F)cc1)O3 (stereo not shown) [Example 82, 2-(7,9-Dihydroxy-5-oxo-2-(4-(trifluoromethyl)phenyl)-3,5-dihydro-2H-[1,4]oxazino[2,3,4-ij]quinoline-6-carboxamido)acetic acid]
5.7 | O=C(O)CNC(=O)c1c(O)c2cc(F)cc3c2n(c1=O)C(c1ccc(C(F)(F)F)cc1)CN3 (stereo not shown) [Example 118, 2-(9-Fluoro-7-hydroxy-5-oxo-3-(4-(trifluoromethyl)phenyl)-1,2,3,5-tetrahydropyrido[1,2,3-de]quinoxaline-6-carboxamido)acetic acid]

Same assay, conditions: FLAG-tagged full length PHD2; 0.2 μM 2-oxoglutarate, 0.5 μM HIF-1α peptide; 45 minutes at room temperature; read-out: MS m/z (M + 1)+ and human HIF-PHD2 IC50

SMILES | IC50 [nM]
O=C(O)CNC(=O)c1c(O)c2c(Br)ccc3c2n(c1=O)C(c1cncs1)CO3 (stereo not shown) [Example 176, 2-(8-bromo-7-hydroxy-5-oxo-3-(thiazol-5-yl)-3,5-dihydro-2H-[1,4]oxazino[2,3,4-ij]quinoline-6-carboxamido)acetic acid] | 7.7
O=C(O)CNC(=O)c1c(O)c2cccc3c2n(c1=O)C(c1nccs1)CO3 (stereo not shown) [Example 168, 2-(7-hydroxy-5-oxo-3-(thiazol-2-yl)-3,5-dihydro-2H-[1,4]oxazino[2,3,4-ij]quinoline-6-carboxamido)acetic acid] | 19
N#Cc1ccc(C2Cn3c(=O)c(C(=O)NCC(=O)O)c(O)c4ccc(C(F)(F)F)c(c43)O2)cc1 (single isomer, unassigned) [Example 78, 2-(2-(4-cyanophenyl)-7-hydroxy-10-(trifluoromethyl)-3,5-dihydro-2H-[1,4]oxazino[2,3,4-ij]quinoline-6-carboxamido)acetic acid] | 7.9

Further lines, results first:

IC50 [nM] | SMILES
12 | O=C(O)CNC(=O)c1c(O)c2cc(Cl)cc3c2n(c1=O)CC(c1ccc(C(F)(F)F)cc1)O3 (single isomer, unassigned) [Example 75, 2-(9-chloro-7-hydroxy-5-oxo-2-(4-(trifluoromethyl)phenyl)-3,5-dihydro-2H-[1,4]oxazino[2,3,4-ij]quinoline-6-carboxamido)acetic acid]
47 | O=C(O)CNC(=O)c1c(O)c2cc(Br)cc3c2n(c1=O)C(c1ccc(C(F)(F)F)cc1)CO3 (stereo not shown) [Example 159, 2-(9-bromo-7-hydroxy-5-oxo-3-(4-(trifluoromethyl)phenyl)-3,5-dihydro-2H-[1,4]oxazino[2,3,4-ij]quinoline-6-carboxamido)acetic acid]
16 | O=C(O)CNC(=O)c1c(O)c2cc(Cl)cc3c2n(c1=O)C(c1ccc(C(F)(F)F)cc1)CO3 (stereo not shown) [Example 166, 2-(9-chloro-7-hydroxy-5-oxo-3-(4-(trifluoromethyl)phenyl)-3,5-dihydro-2H-[1,4]oxazino[2,3,4-ij]quinoline-6-carboxamido)acetic acid]
16 | O=C(O)CNC(=O)c1c(O)c2ccc(Br)c3c2n(c1=O)C(c1ccc(C(F)(F)F)cc1)CO3 (stereo not shown) [Example 161, 2-(10-bromo-7-hydroxy-5-oxo-3-(4-(trifluoromethyl)phenyl)-3,5-dihydro-2H-[1,4]oxazino[2,3,4-ij]quinoline-6-carboxamido)acetic acid]
